Test results taken from patent publication US20240238274A1, “INHIBITORS OF UBIQUITIN SPECIFIC PEPTIDASE 22 (USP22) AND USES THEREOF FOR TREATING DISEASE AND DISORDERS” (Northwestern University, priority 2021, published 2024).

Columns and labels:
naïve mice = test: In vivo toxicity and Treg phenotype in naïve mice
Method: D, Graphical representation of Foxp3 MFI upon Usp22i-S02 administration (n=5). E, Tumor growth curve of LLC1 cells subcutaneously injected in the flank of WT mice with or without the addition of 20 mg/kg/time of the Usp22 inhibitor starting at day 15, in 100 μL of oil (n=4). F-G, Representative flow cytometry plot and graphical representation of % infiltration of CD4+ and CD8+ T cells within the tumor (n=4). […] I, MFI of itTreg suppressive markers (n=3-4). […] B, D-E, G, H-I Two-way ANOVA with multiple comparisons between rows was performed to determine statistical significance. J, Unpaired two tailed T test was performed to determine significance. All data are presented as mean±stdev. NS, not significant. *P<0.05, **P<0.01, ***P<0.001, ****P<0.0001.
A, Body weight of Usp22i-S02 treated mice verses DMSO treated controls over the course of treatment (n=4). […] B, Percent of cell populations in naïve mice treated with Usp22i-S02 relative to DMSO control (n=3-4). […] E, Percent Annexin+PI+ T cells gates on CD45+ cells in naïve mice treated with Usp22i-S02 relative to DMSO control (n=4). F-H, Organ toxicity panel (VetScan VS2 Comprehensive Diagnostic Rotor lot 1061AA2) of naïve mice treated with Usp22i-S02 relative to DMSO control (n=2-3). […] J, Weights of resected tumors at day 16 from I (n=10). K-L, Representative flow plot and graphical representation of infiltrating T cells gated on CD45+ cells (n=5). […] Q, Percent of intratumoral Treg cells from mice treated with Usp22i-S02 verses DMSO control, gated on CD4+Foxp3+ from mice (n=5). A-E, I and L, Two-way ANOVA with Sidaks's multiple comparisons between rows relative to control was performed to determine statistical significance. F-H, J, and M-Q, Two-tailed unpaired t-test was performed to determine statistical significance. All data are presented as mean±stdev. NS, not significant. *P<0.05, **P<0.01, ***P<0.001, ****P<0.0001.
An important aspect of a potential immunotherapeutic is its antitumor functionality paired with low immune toxicity. To determine the toxicity of Usp22i-S02 in vivo, we first determined its effects in naïve mice.

USP22 = biological target: T1, USP22 (Mus musculus, UniProt Q5DU02); test: Biological screening of the 25 chemicals, FOXP3 MFI reduction as readout; type: cell-based; conditions: biological validation of the 25 chemicals
T1 construct: endogenous in cells; probably murine iTreg
T1 sequence (Q5DU02 1-525): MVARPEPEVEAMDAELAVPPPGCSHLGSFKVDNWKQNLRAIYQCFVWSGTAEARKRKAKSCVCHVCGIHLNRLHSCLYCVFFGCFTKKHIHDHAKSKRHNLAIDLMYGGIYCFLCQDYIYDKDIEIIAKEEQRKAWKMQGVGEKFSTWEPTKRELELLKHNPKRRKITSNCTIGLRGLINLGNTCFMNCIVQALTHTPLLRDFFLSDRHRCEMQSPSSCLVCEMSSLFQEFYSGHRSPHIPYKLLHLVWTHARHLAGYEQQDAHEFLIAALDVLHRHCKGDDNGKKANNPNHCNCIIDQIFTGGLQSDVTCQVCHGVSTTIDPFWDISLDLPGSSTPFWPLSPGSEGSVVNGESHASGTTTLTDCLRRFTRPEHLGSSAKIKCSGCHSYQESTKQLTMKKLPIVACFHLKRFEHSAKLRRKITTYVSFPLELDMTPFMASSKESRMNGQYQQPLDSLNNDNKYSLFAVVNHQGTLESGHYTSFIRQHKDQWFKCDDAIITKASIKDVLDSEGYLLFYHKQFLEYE
T1 sequence (A2AWT3 1-347 partner): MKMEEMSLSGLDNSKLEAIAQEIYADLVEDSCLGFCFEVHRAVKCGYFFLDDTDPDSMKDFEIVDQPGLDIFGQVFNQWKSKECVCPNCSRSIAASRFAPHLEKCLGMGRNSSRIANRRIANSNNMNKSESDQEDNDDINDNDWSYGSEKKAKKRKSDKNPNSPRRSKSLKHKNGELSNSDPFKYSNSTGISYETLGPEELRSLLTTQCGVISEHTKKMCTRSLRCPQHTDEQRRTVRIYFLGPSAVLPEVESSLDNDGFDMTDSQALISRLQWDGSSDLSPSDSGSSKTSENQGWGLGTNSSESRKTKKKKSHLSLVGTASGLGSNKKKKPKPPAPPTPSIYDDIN
T1 sequence (Q9JIX0 1-101 partner): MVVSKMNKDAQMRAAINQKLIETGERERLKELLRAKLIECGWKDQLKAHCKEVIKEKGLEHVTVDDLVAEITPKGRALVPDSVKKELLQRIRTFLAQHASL
Text: We then used both Lipinski's Rule and Veber's Rule to filter through the Specs database and found a total of 240K compounds binding to the catalytic pocket of our Usp22 model. We then filtered the top 100 compounds ranked by docking affinity by MD and MM/PBSA methods and were left with 25 compounds (Table 1). This limited number of compounds allowed us for further biological screening. As USP22 suppression leads to dramatic reduction in FOXP3 expression levels, we utilized FOXP3 MFI reduction as a readout for the biological validation of USP22 inhibitory efficacy by each of the 25 chemicals. […] The compound S02, structure shown in FIG. 6A, bound stably in the USP22 catalytic domain pocket shown by the RMSD trajectory (FIG. 14E) with strong binding energies to our USP22-md model (FIG. 14F). […] Therefore, future generations of Usp22 inhibitors should take into considerations not only the hydrophobic residues, but also the interaction between the inhibitor and the charged and polar residues on the surface of the binding pocket.

LLC1 tumors = test: Established LLC1 tumors in Rag−/− mice; type: in vivo; conditions: Rag−/− mice with established LLC1 tumors, treated 3 days
Method: (§1) FIG. 17: Usp22i-S02 inhibits tumor growth in vitro and in vivo. A, In vitro counts of LLC1 after treatment with Usp22i-S02 under various concentrations for 24 hours (n=2). B, In vitro viability of LLC1 after treatment with Usp22i-S02 under various concentrations for 24 hours (n=2). C, In vitro relative growth of LLC1 cells treated with 10 ug/ml of Usp22i-S02 relative to DMSO treated control for 7 days via OD600 (n=4). D, Growth curve of 1 million subcutaneously injected LLC1 cells into RAG−/− mice treated for 3 days Usp22i-S02 relative to DMSO control injections at day 15 of tumor growth (n=4). C-D, Two-way ANOVA with Sidaks's multiple comparisons between rows relative to control was performed to determine statistical significance. All data are presented as mean±stdev. NS, not significant. *P<0.05, **P<0.01, ***P<0.001, ****P<0.0001.
(§2) As Usp22 is also an important oncogene (43, 44), we were interested in the potential dual-therapeutic function of Usp22i-S02.

LLC1 cells = LLC1 cells in vitro: counts, viability, growth; type: cell-based
Method: as §1, §2

**Q.** Which results are given for N#Cc1c2c(c(Nc3ccccc3)n3c1nc1ccccc13)CCCC2 [Chemical S02, 11-anilino-7,8,9,10-tetrahydro-benzimidazo [1,2-b] isoquinoline-6-carbonitrile]?
**A.** FOXP3 MFI in Treg cells from the spleen and lymph nodes (naïve mice; WT mice, 20 mg/kg in vivo): significant drop in FOXP3 MFI; Treg cell death (naïve mice; naïve mice vs DMSO control): significantly increased; organ toxicity (comprehensive tissue panel) (naïve mice; naïve mice vs DMSO-treated control): no organ toxicity differences; weights, B cell and Teff cell percentages and proliferation, Teff cell activation (naïve mice; naïve mice vs DMSO-treated control, 10 mg/kg twice a day for 3 days): little alteration; efficacy in downregulating FOXP3 expression (USP22): strong efficacy in downregulating FOXP3 expression; tumor growth (LLC1 tumors): small but statistically significant decrease in tumor growth; tumor cell counts, viability and growth (LLC1 cells): decreased tumor cell counts, viability, and growth
